# Measured values: PMC7614683, “A small molecule PI3Kα activator for cardioprotection and neuroregeneration” (Nature, 2023)
# Several values for one entry are separate records, joined by “and”; a condition that tells them apart may be missing. Identical values can stand only once.
# System: isolated rat hearts
# Assay: Langendorff ex vivo perfused rat heart model of ischaemia reperfusion injury
# Conditions: 1938 5 μM or insulin 1 μM; Fig 5d, single hearts
# Description: The Langendorff ex vivo perfused rat heart was used as an experimental model of IRI[79]. The animal experiments were conducted within the terms of the UK Animals (Scientific Procedures) Act 1986, under Project Licence number PPL 70/8556 (Protection of the Ischaemic and Reperfused Myocardium). All procedures conform to the guidelines from Directive 2010/63/EU of the European Parliament on the protection of animals used for scientific purposes. Male Sprague–Dawley rats were bred at a central animal unit in University College London and used at a weight of 250–350 g, and randomly assigned to experimental groups. Rats were anaesthetised by intraperitoneal injection of sodium pentobarbitone (60 mg/kg) (Animalcare, York, UK). […] Analysis of infarct size (IS) as a proportion of area at risk (AAR) was calculated via planimetry using imageJ software (version 1.45, National Institutes of Health, USA).
# Alternatively, after 15 min reperfusion, perfusion was stopped and hearts were freeze-clamped in liquid nitrogen and frozen at -80°C. […] Protein content was determined by bicinchoninic acid (BCA) assay (Sigma-Aldrich, Gillingham, UK). […] The next day, membranes were probed with IRDye fluorescence-tagged secondary antibodies (#926-32211 and #926-68020; LI-COR Biosciences, Ltd. UK) and imaged and quantified using the Odyssey imaging system (Image Studio Lite Ver 5.2; LI-COR Biosciences, Cambridge, UK).
substance,measurement,value
"insulin: insulin, canonical activator of PI3Kα, used as positive control",Western blot pAkt in langendorff,3.259 and 3.657
